From US9895363B2, “Methods for modulating function of proliferating cell nuclear antigen (PCNA) and treating cancer with PCNA-targeting compounds” (University of Cincinnati, priority 2010, dated 2018)

Legend:
PCNA = target: T1, PCNA (Homo sapiens, UniProt P12004); assay: Euchromatin- and heterochromatin-associated PCNA; type: cell-based; details: PC-3, 0.5 μM, 8 H; FIG. 12
T1 construct: endogenous PCNA was knocked down with transfection of PCNA-specific siRNA; endogenous in cells; host or cells: PC-3
T1 sequence (P12004 whole entry): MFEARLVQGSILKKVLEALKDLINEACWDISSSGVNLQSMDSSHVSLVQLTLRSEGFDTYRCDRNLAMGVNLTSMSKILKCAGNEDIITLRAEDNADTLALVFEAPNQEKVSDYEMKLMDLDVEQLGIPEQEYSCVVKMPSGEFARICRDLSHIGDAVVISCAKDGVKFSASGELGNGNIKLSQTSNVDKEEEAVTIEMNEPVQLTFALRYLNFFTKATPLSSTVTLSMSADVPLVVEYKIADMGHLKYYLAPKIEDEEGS
Description: Differential effects of PCNA-I1 on the level of euchromatin- (often under active gene transcription) and heterchromatin (often under limited gene transcription) associated PCNA were also investigated. Specifically, PC-3 cells were treated for 8 H with 0.5 μM of PCNA-I1 and PCNA was extracted by procedures known in the art with a combination of limited digestion with micrococcal nuclease and treatment with EDTA to obtain total (S1), euchromatin-associated (S2), and heterochromatin-associated (S3). The extracts were subjected to western blotting analysis.

B16 melanoma cells = assay: Growth inhibition by MTT staining, B16; type: cell-based; details: B16, 96 h, Mouse, treated four days
Description: (§1) Growth inhibitory effects of PCNA-I1 and PCNA-I2 were assessed in human cancer cell lines, mouse cancer cell lines, immortalized mouse cell lines, and human primary cell lines. Specifically, growth inhibitory effects of PCNA-I1 and PCNA-I2 were assessed using MTT staining in the following cells lines: 1) human cancer cell lines including LNCaP (androgen receptor […]), 22Rv1, DU-145, LAPC-4, and PC-3 (androgen receptor […]) prostate cancer cells; MCF-7 and T47D breast cancer cells; A375 and MDA-MB435 melanoma cells; 2) mouse cancer cell lines including TRAMP-C2RE3 prostate cancer cells, B16 and K1735 melanoma cells, UV2237 fibrosarcoma cells, and CT-26 colon cancer cells; 3) immortalized mouse lung cell lines and mouse endothelial cell lines; and 4) primary human cell lines including umbilical endothelial cells (HUVEC, PromoCell, Heidelberg, Germany), primary bone marrow mesenchymal stem cells (HuMSC, PromoCell), primary human mammary epithelial cells (HuBrEC, Lonza, Walkersville, Md.), primary human prostate epithelial cells (HuPrEC, Lonza), and primary mouse spleen lymphocytes (isolated in this laboratory), and primary mouse bone marrow stromal cells (isolated in this laboratory). […]
(§2) IC50 values were derived from growth inhibition curves. […] Inhibition of cell growth was calculated using the formula: growth inhibition (%)=(1−A570 of treated/A570 of control)×100. […]

p21Waf1/Cip1 and PCNA = target: T2, p21Waf1/Cip1 and PCNA (Homo sapiens, UniProt P12004); assay: Association of p21Waf1/Cip1 to PCNA (immunoprecipitation); type: cell-based; details: Pc-3 and LNCaP, 0.5 μM, 8 H; FIG. 13
T2 construct: endogenous in cells; host or cells: PC-3, LNCaP
T2 sequence (P12004 whole entry): as above
Description: Chromatin-associated trimeric PCNA executes its function through numerous partner proteins, including p21Waf1/Cip1. To validate that treatment with PCNA-I1 reduces function of PCNA, the binding of p21Waf1/Cip1 to PCNA was investigated. Specifically, Pc-3 and LNCaP cells were treated with PCNA-I1 (0.5 μM) for 8 H and lysed in buffer B as previously discussed. Chromatin-associated protein was extracted in buffer D containing 0.42 M NaCl. The chromatin-associated protein was precipitated with the antibody to PCNA, and was resolved in SDS-PAGE, and probed with antibodies to p21Waf1/Cip1 and PCNA.

Normal Cells = assay: Growth inhibition, mean over normal cells; type: cell-based
Description: as §1, §2

CT-26 colon cancer cells = assay: Growth inhibition by MTT staining, CT-26; type: cell-based; details: CT26; Mouse tumor cells; cell line not given; read-out: IC50 Values, cell line cell blank (first row below UV2237)
Description: as §1, §2

MDA-MB435 melanoma cells = assay: Growth inhibition by MTT staining, MDA-MB435; type: cell-based; details: MDA-MB-435, 96 h, Human, treated four days
Description: as §1, §2

LNCaP cells = assay: LNCaP tumor model in male nude mice; type: in vivo
Description: The therapeutic effects of PCNA-I1 were evaluated in LNCaP cells and 22Rv1 tumor models. LNCaP or 22Rv1 cells (1-2×10^6 cells in gelfoam) were implanted into the subcutis of male nude mice. From four to five days later, tumor-bearing mice were intraperitoneally injected with 10 mg/kg or 50 mg/kg of PCNA-I1. The therapy was continued at three times/week until termination of experiments. Control and treated tumor-bearing mice were monitored daily. Mouse body weight was recorded for toxicity evaluation twice a week and tumor size was measured using calipers twice a week. The experiments were terminated when mice in control groups were moribund. Additionally, to further evaluate potential liver and renal toxicity of PCNA-I1, the blood of tumor-bearing mice were sampled after the treatment with PCNA-I1 for 8 weeks.

Compound: Cc1ccsc1C(=O)N/N=C/c1ccc2ccccc2c1O [PCNA-I1]
- Euchromatin- and heterochromatin-associated PCNA (PCNA): reduced both euchromatin- and heterochromatin protein 1α
- IC50 (B16 melanoma cells): 350 nM
- Level of chromatin-associated PCNA and p21Waf1/Cip1 (p21Waf1/Cip1 and PCNA): reduced the level of PCNA and p21Waf1/Cip1
- IC50 (Normal Cells; mean over all normal cells, read-out: IC50 Values, Normal Cells, Mean ± SD): 1430 ± 450 nM
- Concentrations inhibiting growth of normal cells by 50% relative to those for tumor cells (Normal Cells; normal vs tumor cells, p<0.001): approximately 8 times
- IC50 (CT-26 colon cancer cells): 130 nM
- IC50 (MDA-MB435 melanoma cells): 290 nM
- Tumor eradication, LNCaP model (LNCaP cells; 50 mg/kg i.p., three times/week): eradication of LNCaP tumors in some mice
- Tumor growth, LNCaP model (LNCaP cells; 10 or 50 mg/kg i.p., three times/week): retarded tumor growth
- PCNA expression in tumor (immunohistochemistry) (LNCaP cells; LNCaP tumor, 10 mg/kg three times/week, FIG. 22): reduced PCNA expression
